Test results: patent US20220305121A1, “N-ARYL SULFONAMIDE DERIVATIVES AS VACCINE ADJUVANT” (The Regents of the University of California, priority 2019, published 2022)
“Also recorded” adds a separate entry of the source.

Columns and labels:
[1] = tested on: NF-κB; experiment: Measurement of NF-κB activation using THP1-Blue NF-κB cells (SEAP reporter, LPS as primary stimulus); assay type: cell-based; details: for activity at 5 µM: compound 5 μM + LPS, 20 hour incubation, two point normalized: compound 1 + LPS = 200%, LPS = 100%, mean
Method in brief: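 THP1-Blue NF-κB cells (10^5/well, RPMI + 10% FBS) were co-treated with LPS 10 μg/mL and compound 5 μM (final, […]) for 20 h. Supernatant SEAP was read by QuantiBlue colorimetry at 630 nm. Two-point normalization set LPS alone to 100% and compound 1+LPS to 200%.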

[2] = tested on: ISRE; experiment: Measurement of ISRE activity in ISRE-bla THP-1 cells (FRET, IFN-α as primary stimulus); assay type: cell-based; details: Homo sapiens, THP-1; for activity at 5 µM: compound 5 μM + IFN-α 100 U/mL, 16 hours, two point normalized: compound 1 + IFN-α = 200%, IFN-α = 100%, mean, read-out: ISRE % Activation; for EC50: dose response in the presence of IFN-α
Method in brief: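 Cells at 5×10^4/well in RPMI with 10% dialyzed FBS, treated with compound at 5 μM (0.05% DMSO) plus IFN-α at 100 U/mL (final) for 16 h. CCF4-AM substrate added for 3 h at room temperature. Background-subtracted 465/535 nm emission ratio, 2-point normalized: IFN-α alone 100%, compound 1+IFN-α 200%.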

[3] = tested on: THP-1 cells; experiment: Cell viability assay (MTT); assay type: cell-based; details: compound 5 μM, 18 hours incubation; normalized to DMSO as 100%; mean
Method in brief: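 Cells at 10^5/well in RPMI with 10% FBS were exposed to compound at 5 μM final (0.05% DMSO) for 18 h. MTT (0.5 mg/mL) then added for 4-6 h, cells lysed overnight in SDS/HCl, absorbance read at 570 nm against 650 nm reference.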

[4] = tested on: C57BL/6 (wild-type, WT) mice; experiment: In vivo adjuvant activity study (ovalbumin + MPLA + compound, OVA-specific IgG by ELISA); details: coimmunization with MPLA and ovalbumin; for OVA-specific IgG antibody titers: intramuscular, days 0 and 21, compared to MPLA alone
[5] = tested on: NF-κB and ISRE; experiment: NF-κB and ISRE reporter assays (primary screens), statements in words for both assays; assay type: cell-based; details: for activity in NF-κB and ISRE assays (in words): with LPS or IFN-α as primary stimulus, compared to compound 1
Method in brief: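 Single 5 μM compound (0.05% DMSO). NF-κB: THP1-Blue cells with 10 μg/mL LPS, 20 h, SEAP by absorbance at 630 nm. ISRE: ISRE-bla THP-1 cells with 100 U/mL IFN-α, 16 h, CCF4-AM 465/535 nm ratio. Both normalized to stimulus alone as 100%, compound 1 plus stimulus as 200%.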

[6] = Stability of compound 48 in DMSO stock and in assay media; assay type: physicochemical
Method: However, before proceeding with syntheses of additional acylated analogs, its stability in stock solutions was evaluated since during the assay this compound could behave as a prodrug by undergoing deacetylation to release active compound 1. […] Thus, syntheses of additional acylated analogs were not pursued.

Row | SMILES | activity at 5 µM [1] | activity at 5 µM [2] | EC50 [2] | MTT % Viability [3] | systemic toxicity as indicated by behavior change or weight loss [4] | OVA-specific IgG antibody titers [4] | NF-κB or ISRE activity when tested alone ([5]; tested alone, without LPS or IFN-α) | activity in NF-κB and ISRE assays (in words) [5] | EC50 ([1]; dose response in the presence of LPS) | incubation with assay media ([6]; assay media, data not shown) | stability of stock in DMSO ([6]; stock in DMSO)
1 | CCOc1ccc(S(=O)(=O)Nc2cc(OC)c(Cl)cc2OC)cc1 [Compound 1, N-(4-chloro-2,5-dimethoxyphenyl)-4-ethoxybenzenesulfonamide] | 200% | 200% | 660 nM | 73.5% | without demonstrable systemic toxicity | statistically significant increases; also recorded: significant enhancement of antibody titers | little if any | enhanced their activation; also recorded: retained activity; also recorded: sustained NF-κB and ISRE activation | – | – | –
2 | CCOc1ccc(S(=O)(=O)N(C)c2cc(OC)c(Cl)cc2OC)cc1 [Compound 33, N-(4-chloro-2,5-dimethoxyphenyl)-4-ethoxy-N-methylbenzenesulfonamide] | 235% | 215% | 840 nM | 74.5% | without demonstrable systemic toxicity | statistically significant increases; also recorded: significant enhancement of antibody titers | – | equipotent as compound 1 | 690 nM | – | –
3 | CCOc1ccc(S(=O)(=O)N(C(C)=O)c2cc(OC)c(Cl)cc2OC)cc1 [Compound 48, N-(4-chloro-2,5-dimethoxyphenyl)-N-((4-ethoxyphenyl)sulfonyl)acetamide] | – | – | – | 72.0% | – | – | – | active | – | release of compound 1 | stable
